The structures appear in SMILES notation.

2 compounds from paper PMC8213057, “Targeting ALK2: An Open Science Approach to Developing Therapeutics for the Treatment of Diffuse Intrinsic Pontine Glioma” (Journal of Medicinal Chemistry, 2020) can be followed below.

Assay [1] deals with CAMK1g (Homo sapiens, UniProt Q96NX5). To be noted: 1 μM; Run 1, Run 2.
In assay [2] the target is COT1/MAP3K8 (Homo sapiens, UniProt P41279). To be noted: 1 μM; Run 1, Run 2.
Assay [3] deals with T1, CTK/MATK (Homo sapiens, UniProt P42679).
T1 sequence (P42679 1-507): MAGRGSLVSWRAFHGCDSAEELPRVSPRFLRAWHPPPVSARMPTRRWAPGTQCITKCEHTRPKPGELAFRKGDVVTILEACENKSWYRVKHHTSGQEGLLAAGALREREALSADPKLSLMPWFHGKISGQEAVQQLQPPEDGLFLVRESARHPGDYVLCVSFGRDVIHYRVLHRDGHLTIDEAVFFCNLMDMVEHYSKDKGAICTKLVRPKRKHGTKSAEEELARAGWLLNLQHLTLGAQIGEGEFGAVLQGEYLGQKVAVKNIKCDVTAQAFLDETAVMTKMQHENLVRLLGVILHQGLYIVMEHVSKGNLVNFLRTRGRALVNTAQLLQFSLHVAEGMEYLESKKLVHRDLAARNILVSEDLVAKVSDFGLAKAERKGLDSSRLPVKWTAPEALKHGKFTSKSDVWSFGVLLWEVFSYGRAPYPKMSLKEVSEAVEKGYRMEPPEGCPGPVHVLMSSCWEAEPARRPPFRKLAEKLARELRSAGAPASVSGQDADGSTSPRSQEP
The note with it: 1 μM; Run 1, Run 2.

Assay [4] addresses T2, EPHA1 (Homo sapiens, UniProt P21709).
T2 sequence (P21709 26-976): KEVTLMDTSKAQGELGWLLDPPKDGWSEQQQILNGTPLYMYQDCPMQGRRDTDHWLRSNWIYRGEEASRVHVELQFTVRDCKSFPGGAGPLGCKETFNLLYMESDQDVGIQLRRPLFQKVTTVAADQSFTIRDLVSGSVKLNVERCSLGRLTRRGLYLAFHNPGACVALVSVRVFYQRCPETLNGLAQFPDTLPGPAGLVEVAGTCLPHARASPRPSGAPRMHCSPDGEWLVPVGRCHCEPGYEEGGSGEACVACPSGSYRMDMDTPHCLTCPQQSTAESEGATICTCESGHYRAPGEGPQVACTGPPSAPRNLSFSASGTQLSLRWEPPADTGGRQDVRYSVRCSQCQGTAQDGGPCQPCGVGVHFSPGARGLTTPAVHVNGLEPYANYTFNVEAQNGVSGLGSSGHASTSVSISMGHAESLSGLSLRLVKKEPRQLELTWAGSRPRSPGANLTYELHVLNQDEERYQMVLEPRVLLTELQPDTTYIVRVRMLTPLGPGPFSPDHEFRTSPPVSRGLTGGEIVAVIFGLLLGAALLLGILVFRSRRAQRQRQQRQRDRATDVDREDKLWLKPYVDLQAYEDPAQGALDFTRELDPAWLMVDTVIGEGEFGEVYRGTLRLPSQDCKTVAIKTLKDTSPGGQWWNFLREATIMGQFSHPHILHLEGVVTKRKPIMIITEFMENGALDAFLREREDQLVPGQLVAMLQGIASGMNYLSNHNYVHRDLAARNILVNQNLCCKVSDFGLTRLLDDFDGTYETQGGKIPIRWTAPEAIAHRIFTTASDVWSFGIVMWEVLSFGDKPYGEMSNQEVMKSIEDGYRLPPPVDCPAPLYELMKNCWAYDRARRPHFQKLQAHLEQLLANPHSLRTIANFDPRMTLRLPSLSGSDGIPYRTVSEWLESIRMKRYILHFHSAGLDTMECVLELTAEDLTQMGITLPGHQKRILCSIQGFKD
To be noted: 1 μM; Run 1, Run 2.

For assay [5], the target named is GSK3a (Homo sapiens, UniProt P49840). The note with it: 1 μM; Run 1, Run 2.
In assay [6] the target is T3, PKG1b (Homo sapiens, UniProt Q13976).
T3 sequence (Q13976 1-686 isoform Q13976-2): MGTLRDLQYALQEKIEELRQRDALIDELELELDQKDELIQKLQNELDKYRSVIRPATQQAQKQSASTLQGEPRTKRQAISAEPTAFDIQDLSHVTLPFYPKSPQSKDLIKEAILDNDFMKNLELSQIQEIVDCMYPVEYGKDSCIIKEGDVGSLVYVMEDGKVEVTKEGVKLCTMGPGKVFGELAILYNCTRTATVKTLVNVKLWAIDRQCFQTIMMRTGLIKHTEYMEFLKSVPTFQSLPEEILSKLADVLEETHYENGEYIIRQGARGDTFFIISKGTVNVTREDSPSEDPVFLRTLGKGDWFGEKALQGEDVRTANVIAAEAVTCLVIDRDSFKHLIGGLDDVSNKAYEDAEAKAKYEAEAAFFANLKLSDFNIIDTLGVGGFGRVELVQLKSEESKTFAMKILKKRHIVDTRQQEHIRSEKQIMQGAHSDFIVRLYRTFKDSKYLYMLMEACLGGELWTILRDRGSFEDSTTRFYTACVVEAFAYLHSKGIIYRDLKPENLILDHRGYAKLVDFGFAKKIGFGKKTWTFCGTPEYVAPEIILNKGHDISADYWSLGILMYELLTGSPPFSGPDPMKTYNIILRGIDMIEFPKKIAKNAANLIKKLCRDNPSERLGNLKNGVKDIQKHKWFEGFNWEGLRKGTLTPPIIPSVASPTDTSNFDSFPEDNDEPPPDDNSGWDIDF
To be noted: 1 μM; Run 1, Run 2.

The target in assay [7] is SIK3 (Homo sapiens, UniProt Q9Y2K2). The note with it: 1 μM; Run 1, Run 2.
In assay [8] the target is FGFR2 (Homo sapiens, UniProt P21802). In words: biochemical. To be noted: read-out: % enzyme activity, 1 μM; Run 1, Run 2.
In assay [9] the target is HCK (Homo sapiens, UniProt P08631). In words: biochemical. The note with it: read-out: % enzyme activity, 1 μM; Run 1, Run 2.
Assay [10] addresses T4, MKK7 (Homo sapiens, UniProt O14733).
T4 sequence (O14733 1-419): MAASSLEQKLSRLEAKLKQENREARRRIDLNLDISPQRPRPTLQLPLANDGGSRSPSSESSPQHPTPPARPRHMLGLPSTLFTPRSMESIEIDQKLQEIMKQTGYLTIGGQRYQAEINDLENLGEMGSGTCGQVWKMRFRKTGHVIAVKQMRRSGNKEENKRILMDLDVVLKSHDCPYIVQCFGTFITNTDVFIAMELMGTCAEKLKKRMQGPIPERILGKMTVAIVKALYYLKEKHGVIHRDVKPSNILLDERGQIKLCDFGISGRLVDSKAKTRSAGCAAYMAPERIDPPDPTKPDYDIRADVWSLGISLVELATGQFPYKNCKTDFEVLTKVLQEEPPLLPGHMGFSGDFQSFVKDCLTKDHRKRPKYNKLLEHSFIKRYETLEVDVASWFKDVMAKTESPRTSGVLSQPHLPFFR
Briefly: biochemical. To be noted: read-out: % enzyme activity, 1 μM; Run 1, Run 2.

Sequence of SIK3 (Q9Y2K2 whole entry): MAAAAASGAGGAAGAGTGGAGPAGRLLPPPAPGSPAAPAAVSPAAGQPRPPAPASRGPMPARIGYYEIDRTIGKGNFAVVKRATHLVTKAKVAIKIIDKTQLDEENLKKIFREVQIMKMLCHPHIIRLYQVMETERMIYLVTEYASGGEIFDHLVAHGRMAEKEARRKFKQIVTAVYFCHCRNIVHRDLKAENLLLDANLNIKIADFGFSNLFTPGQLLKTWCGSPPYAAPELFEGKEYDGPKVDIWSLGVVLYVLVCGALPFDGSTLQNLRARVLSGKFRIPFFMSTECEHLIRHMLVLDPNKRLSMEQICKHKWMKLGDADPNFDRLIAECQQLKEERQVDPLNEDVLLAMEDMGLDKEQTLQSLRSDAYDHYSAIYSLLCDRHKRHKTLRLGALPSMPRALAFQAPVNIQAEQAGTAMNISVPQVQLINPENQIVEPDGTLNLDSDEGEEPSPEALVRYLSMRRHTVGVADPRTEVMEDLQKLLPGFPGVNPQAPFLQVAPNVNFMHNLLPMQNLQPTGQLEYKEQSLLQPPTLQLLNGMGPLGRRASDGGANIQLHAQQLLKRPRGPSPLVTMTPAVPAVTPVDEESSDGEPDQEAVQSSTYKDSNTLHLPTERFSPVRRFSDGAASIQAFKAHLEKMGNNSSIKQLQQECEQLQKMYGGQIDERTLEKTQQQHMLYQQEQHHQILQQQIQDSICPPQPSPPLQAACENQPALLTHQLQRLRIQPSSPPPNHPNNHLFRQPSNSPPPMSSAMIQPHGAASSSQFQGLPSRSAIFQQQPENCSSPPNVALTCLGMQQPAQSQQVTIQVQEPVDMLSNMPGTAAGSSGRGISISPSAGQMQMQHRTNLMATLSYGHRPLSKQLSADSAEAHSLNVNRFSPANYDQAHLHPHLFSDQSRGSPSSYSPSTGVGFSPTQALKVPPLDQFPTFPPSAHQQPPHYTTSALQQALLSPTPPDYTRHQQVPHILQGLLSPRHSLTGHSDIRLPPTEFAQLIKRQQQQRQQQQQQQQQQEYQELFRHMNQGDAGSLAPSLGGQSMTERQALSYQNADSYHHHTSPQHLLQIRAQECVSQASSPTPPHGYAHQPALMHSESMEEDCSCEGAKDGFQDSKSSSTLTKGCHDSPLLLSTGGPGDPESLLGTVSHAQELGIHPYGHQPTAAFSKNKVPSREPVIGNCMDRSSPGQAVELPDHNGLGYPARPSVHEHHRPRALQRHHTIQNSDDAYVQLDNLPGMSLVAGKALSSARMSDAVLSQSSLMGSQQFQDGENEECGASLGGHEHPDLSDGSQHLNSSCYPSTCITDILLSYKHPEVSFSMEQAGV
Sequence of FGFR2 (P21802 22-821): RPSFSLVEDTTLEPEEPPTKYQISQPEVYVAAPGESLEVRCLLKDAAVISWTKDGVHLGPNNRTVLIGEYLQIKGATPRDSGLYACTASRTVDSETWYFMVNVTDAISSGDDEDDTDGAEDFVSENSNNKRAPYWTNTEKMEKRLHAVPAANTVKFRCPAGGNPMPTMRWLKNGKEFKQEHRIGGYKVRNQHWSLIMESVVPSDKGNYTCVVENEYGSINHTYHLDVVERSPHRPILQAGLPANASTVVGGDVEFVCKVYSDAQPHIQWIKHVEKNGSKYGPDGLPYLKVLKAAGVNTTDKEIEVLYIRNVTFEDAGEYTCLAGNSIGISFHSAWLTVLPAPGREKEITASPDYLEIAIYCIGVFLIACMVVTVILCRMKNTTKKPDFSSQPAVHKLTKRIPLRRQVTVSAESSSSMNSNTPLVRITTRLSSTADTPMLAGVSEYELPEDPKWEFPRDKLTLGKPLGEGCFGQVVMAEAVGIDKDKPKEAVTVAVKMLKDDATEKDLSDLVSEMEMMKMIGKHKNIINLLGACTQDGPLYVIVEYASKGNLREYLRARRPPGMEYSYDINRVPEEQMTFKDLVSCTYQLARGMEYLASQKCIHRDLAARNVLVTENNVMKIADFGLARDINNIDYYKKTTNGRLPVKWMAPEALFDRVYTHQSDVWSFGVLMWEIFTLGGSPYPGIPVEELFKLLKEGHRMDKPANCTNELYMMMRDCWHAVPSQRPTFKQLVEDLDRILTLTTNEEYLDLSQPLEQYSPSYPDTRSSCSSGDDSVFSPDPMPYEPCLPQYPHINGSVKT
Sequence of HCK (P08631 whole entry): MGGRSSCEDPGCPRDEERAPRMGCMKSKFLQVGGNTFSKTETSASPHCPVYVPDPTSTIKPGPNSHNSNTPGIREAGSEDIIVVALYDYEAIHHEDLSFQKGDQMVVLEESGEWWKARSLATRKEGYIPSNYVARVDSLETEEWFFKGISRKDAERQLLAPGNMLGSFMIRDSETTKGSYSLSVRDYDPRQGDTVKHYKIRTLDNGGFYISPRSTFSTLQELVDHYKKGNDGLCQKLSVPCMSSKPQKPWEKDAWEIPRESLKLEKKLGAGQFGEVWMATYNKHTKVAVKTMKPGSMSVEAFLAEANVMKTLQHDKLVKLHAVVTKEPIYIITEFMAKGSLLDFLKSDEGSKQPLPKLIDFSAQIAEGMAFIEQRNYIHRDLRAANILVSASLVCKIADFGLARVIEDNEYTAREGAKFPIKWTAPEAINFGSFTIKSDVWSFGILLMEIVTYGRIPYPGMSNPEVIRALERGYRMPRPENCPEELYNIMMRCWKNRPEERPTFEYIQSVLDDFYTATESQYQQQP
Sequence of COT1/MAP3K8 (P41279 whole entry): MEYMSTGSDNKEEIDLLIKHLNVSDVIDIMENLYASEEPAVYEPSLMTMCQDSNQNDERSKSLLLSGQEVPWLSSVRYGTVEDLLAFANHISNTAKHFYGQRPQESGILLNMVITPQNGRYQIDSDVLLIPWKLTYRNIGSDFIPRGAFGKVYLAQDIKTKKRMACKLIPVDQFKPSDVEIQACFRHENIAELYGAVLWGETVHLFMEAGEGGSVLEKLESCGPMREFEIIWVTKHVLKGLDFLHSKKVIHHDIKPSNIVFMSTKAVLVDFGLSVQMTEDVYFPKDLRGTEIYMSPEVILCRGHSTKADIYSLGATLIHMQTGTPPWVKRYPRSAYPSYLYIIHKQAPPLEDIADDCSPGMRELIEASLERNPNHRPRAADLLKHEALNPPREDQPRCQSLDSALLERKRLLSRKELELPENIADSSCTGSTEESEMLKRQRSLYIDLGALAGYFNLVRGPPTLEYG
Sequence of CAMK1g (Q96NX5 whole entry): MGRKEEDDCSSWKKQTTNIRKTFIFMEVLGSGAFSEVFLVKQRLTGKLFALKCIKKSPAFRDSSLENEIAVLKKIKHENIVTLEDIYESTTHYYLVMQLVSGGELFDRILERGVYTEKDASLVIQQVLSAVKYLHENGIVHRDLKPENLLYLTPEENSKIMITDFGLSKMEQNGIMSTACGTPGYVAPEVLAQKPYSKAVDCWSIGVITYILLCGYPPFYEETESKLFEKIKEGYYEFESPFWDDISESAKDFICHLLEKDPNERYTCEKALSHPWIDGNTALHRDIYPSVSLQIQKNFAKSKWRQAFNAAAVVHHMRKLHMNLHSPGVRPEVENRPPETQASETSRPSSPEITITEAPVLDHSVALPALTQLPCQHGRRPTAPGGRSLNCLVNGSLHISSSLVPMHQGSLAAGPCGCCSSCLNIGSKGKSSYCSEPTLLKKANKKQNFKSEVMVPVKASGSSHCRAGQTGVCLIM
Sequence of GSK3a (P49840 whole entry): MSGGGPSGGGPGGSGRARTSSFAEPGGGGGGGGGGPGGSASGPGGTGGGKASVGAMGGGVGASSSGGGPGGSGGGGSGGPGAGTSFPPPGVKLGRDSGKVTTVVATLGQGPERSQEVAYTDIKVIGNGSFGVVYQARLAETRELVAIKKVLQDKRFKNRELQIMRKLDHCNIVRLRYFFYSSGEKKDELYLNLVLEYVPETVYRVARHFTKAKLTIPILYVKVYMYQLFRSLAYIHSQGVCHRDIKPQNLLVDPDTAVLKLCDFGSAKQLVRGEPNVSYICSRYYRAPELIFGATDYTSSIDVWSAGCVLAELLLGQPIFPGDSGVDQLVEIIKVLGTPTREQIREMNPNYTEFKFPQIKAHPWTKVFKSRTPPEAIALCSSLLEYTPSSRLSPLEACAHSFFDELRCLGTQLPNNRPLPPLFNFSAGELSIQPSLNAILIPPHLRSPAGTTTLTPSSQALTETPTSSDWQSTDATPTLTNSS

Turning to `COc1cc(-c2cncc(-c3ccc(N4CCN(C)CC4)cc3)c2C)cc(F)c1C(N)=O` [Compound 26a, 2-Fluoro-6-methoxy-4-(4-methyl-5-(4-(4-methylpiperazin-1-yl)phenyl)pyridin-3-yl)benzamide], the “% enzyme activity” value in assay [1] was determined as 99.10%; in assay [2], 90.60%; in assay [3] it was 94.85%; in assay [4], 96.36%; in assay [5], 100.80%; in [6], 98.83%. Also, in assay [7], the “% enzyme activity” value was 58.19%. Moreover, the remaining activity at 1 µM in [8] was 95.5%; in assay [9] it was 93.6%; in assay [10] it was 93%.

On to `COc1cc(-c2cncc(-c3ccc(N4C[C@@H](C)N(C)[C@@H](C)C4)cc3)c2C)cc(F)c1C(N)=O` [Compound 26c, 2-Fluoro-6-methoxy-4-(4-methyl-5-(4-((3R,5S)-3,4,5-trimethylpiperazin-1-yl)phenyl)pyridin-3-yl)benzamide], for which the “% enzyme activity” value in assay [1] was 107.66%; in assay [2] it was 93.89%; in [3], 98.62%; in assay [4] it was 89.93%; in assay [5], 101.44%; in assay [6], 96.31%. Moreover, the “% enzyme activity” value in [7] stood at 82.93%. Also, the remaining activity at 1 µM in [8] was 91.9%; in [9], 91.8%; in assay [10], 98.7%.
